In general, inhibition refers to the change of the read-out against control, counted positive when it falls. What is called % Inhibition is the change of the read-out against control, counted positive when it falls. High values mean strong suppression, low ones little suppression.

“And” between values parts separate entries of the source, which are not always exact repeats. Identical values can stand only once.

In test [1] the target is T1, androgen receptor (adenovirus AdEasy+rAR in L929 cells) (Rattus norvegicus, UniProt P15207).
T1 construct: expressed in transfected cells
T1 sequence (P15207 1-902): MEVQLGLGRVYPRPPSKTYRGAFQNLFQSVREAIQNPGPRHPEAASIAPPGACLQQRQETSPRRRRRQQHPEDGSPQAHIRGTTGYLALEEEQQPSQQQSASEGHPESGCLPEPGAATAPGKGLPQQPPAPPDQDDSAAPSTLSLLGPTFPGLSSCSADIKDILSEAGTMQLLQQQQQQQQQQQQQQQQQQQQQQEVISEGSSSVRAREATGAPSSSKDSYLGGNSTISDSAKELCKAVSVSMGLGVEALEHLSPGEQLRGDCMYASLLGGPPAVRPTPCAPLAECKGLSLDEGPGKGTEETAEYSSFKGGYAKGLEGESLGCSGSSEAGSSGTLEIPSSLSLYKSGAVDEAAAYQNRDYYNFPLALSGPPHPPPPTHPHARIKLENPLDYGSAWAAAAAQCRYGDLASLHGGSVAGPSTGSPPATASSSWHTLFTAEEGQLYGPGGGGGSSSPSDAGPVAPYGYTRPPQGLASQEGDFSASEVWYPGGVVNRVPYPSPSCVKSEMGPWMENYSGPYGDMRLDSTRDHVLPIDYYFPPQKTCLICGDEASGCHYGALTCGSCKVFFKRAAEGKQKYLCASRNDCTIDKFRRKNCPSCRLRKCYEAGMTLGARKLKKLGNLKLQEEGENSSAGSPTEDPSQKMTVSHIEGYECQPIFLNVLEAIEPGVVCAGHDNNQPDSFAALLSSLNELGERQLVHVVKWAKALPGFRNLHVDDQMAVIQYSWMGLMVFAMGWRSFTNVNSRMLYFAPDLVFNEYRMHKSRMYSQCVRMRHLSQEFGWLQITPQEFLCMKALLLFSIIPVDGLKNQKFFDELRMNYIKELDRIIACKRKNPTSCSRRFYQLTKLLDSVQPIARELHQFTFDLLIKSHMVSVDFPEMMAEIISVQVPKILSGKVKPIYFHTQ
The experiment in a line: L929 Androgen Receptor Functional Assay, Adenovirus Transduction. Type of test: cell-based. Particulars: for % Activity: L929 agonist testing. As to the method:
L929 cells were plated in 96-well plates at 20,000 cells per well, in DMEM/F12 (GIBCO) containing 10% (v/v) charcoal-treated fetal bovine serum (Hyclone) and lacking phenol red. The plates were then incubated overnight at 37° C. in 5% (v/v) humidified CO2.
Test compound dilutions were prepared in 100% (v/v) DMSO, if necessary. Each dilution was made to 1250× the final desired assay concentration.
First, 2 mL of DMEM/F12 lacking phenol red was pipetted into the wells of a 2-mL 96-well assay block. Next, 4 μL of the 1250× test compound dilutions were pipetted into each well of the assay block. The mixtures within the well were then carefully mixed by pipette.
In a 15 mL or 50 mL sterile centrifuge tube, a 2.5 nM (2.5×) dilution of R1881 (methyl-trienolone) in DMEM/F12 lacking phenol red was prepared.
In a second 15 mL or 50 mL centrifuge tube a solution containing an equal volume of DMEM to the first and an equal volume of 100% (v/v) DMSO to the volume of R1881 used in the first tube was prepared.
In a 15 mL or 50 mL sterile centrifuge tube, a dilution in DMEM/F12 of the adenovirus AdEasy+rAR at an moi of 1:500 per well was prepared.
The medium was removed from the 96-well plates by inversion and dried, inverted, very briefly. As soon as possible after medium removal, 40 μL of the diluted unlabeled test compound was added to each well, in duplicate. To each well designated for antagonist testing was added 40 μL of the 2.5 nM R1881 dilution to the wells for antagonist testing. To each well designated for agonist testing was added 40 μL of the DMSO dilution. Then 20 μL of the diluted adenovirus were added to all wells. The plates were incubated for 48 hours at 37° C. in 5% (v/v) humidified CO2.
To each well was added 100 μL of Steady-Glo luciferase assay substrate (Promega) and the plates were placed on a rotary shaker for 1 min. The plates were then incubated at room temperature in the dark for one hour. The contents of each well were then transferred to a white microtiter plate (Packard) and read on a Luminoskan Ascent (Thermo Lab Systems).
L929 AR percent activity was determined by testing dilutions of the test compound using a concentration of 3000 nM unless otherwise noted. L929 percent inhibition was determined by testing dilutions of the test compound using a concentration of 3000 nM. […] Luciferase activity per well were measured and EC50s and IC50s determined by linear regression.

Test [2] relates to testosterone-enhanced ventral prostate and seminal vesicle weights in castrated male Sprague Dawley rats. As to the kind of experiment: Ventral Prostate and Seminal Vesicle Weight In Vivo Assay. The arrangement: species or system rat. Particulars: immature castrated rats; once daily for five days, usually orally at 40 mg/kg, with testosterone propionate 2 mg/kg s.c. The protocol:
Immature (approximately 50 g) castrated male Sprague Dawley rats (Charles River) were treated once daily for five days with test compound (usually given orally at 40 mg/kg in a volume of 0.3 mL, in 30% cyclodextrin or 0.5% methylcellulose vehicle) and with testosterone propionate (given subcutaneously by injection at the nape of the neck at 2 mg/kg, in a volume of 0.1 mL in sesame oil). On the sixth day, the rats were euthanized by asphyxiation in carbon dioxide. Ventral prostates and seminal vesicles were removed and their wet weights determined.
A test compound was said to be “active” if the non weight adjusted prostate weight was ≦40 mg or the % Inhibition prostate weight, body weight adjusted was ≧40% @2 mg/day dosage.

Test [3] addresses T2, androgen receptor (adenovirus AdEasy+rAR in COS-7 cells) (Rattus norvegicus, UniProt P15207).
T2 construct: expressed in transfected cells
T2 sequence (P15207 1-902): T1 sequence (P15207 1-902)
As to the kind of experiment: COS-7 Whole-Cell Androgen Receptor Binding Assay, Adenovirus Transduction. To be noted: COS binding; 3000 nM unless otherwise noted. The protocol: COS-7 cells were plated in 96-well plates at 20,000 cells per well, in a solution of DMEM/F12 (GIBCO) containing 10% (v/v) charcoal-treated fetal bovine serum (Hyclone) and lacking phenol red. The cells were then incubated overnight at 37° C. in 5% (v/v) humidified CO2.
Test compound solutions were prepared by diluting the test compound in 100% (v/v) DMSO, if necessary.
Next, 1 mL of DMEM/F12 lacking phenol red was pipetted into each of the wells of a 2-mL 96-well assay block. […] The wells were carefully mixed by pipette.
In a 15 mL or 50 mL sterile centrifuge tube, a dilution in DMEM/F12 of the adenovirus AdEasy+rAR at a moi of 1:50 per well was prepared.
The medium was removed from the 96-well plates by inversion and the plates dried very briefly, inverted, on a sterile towel. As soon as possible after medium removal, 40 μL of the diluted test compound was added to each well, in duplicate. […] The plates were then incubated for 48 hours at 37° C. in 5% (v/v) humidified CO2.
The medium was removed from the above incubated plates by inversion and dried. Each well was then washed with 0.35 mL of 1×PBS. The PBS was then removed from the plates by inversion and the plates dried.
To each well was then added 50 μL of 0.5% (v/v) Triton X-100 (Sigma) in 1×PBS and the plates placed on a rotary shaker for 5 min. The contents of each well were then transferred to an OptiPlate-96 (Packard) scintillation plate. To each well was then added 0.2 mL of Microscint-20 (Packard) and the wells counted on a TopCount (Packard).
[…] Counts per well were measured and percents of inhibition determined. […] Counts per well were measured and IC50s determined by linear regression.

On to `CCCSCC(C)(O)c1cc2cc(Cl)c(C(F)(F)F)cc2[nH]1` (racemic) [compound 196], for which the “% Activity” value in test [1] (3000 nM) is reported as 13%. Also, in test [2], the “active / inactive (inhibition of testosterone-enhanced prostate weight)” value was “inactive”.
For `CCSCC(C)(O)c1[nH]c2cc(C(F)(F)F)c(Br)cc2c1C` (centres unmarked) [compound 220], in test [1] (L929, L929 antagonist testing with R1881, 3000 nM), the inhibition at 3 µM was 103%. The “% Activity” value in test [1] (3000 nM) was −3%. Further, the “active / inactive (inhibition of testosterone-enhanced prostate weight)” value in test [2] is “inactive”.
As for `CCSCC(C)(O)c1cc2cc(Cl)c(C(F)(F)F)cc2[nH]1` (centres unmarked) [compound 152], the “active / inactive (inhibition of testosterone-enhanced prostate weight)” value in test [2] is “inactive”. For the same compound, the inhibition at 3 µM in test [3] worked out at 39%.
For `CC(O)(CSCC(F)(F)F)c1cc2cc(C#N)c(C(F)(F)F)cc2[nH]1` (racemic) [compound 211], the “% Activity” value in test [1] (3000 nM) is −1%.
For `CCSCC(O)(CC)c1cc2cc(C#N)c(C(F)(F)F)cc2[nH]1` (centres unmarked) [Compound #223], the “% Activity” value in test [1] (@ 8000 nM) was 0 @ 8000 nM %. Besides, the “active / inactive (inhibition of testosterone-enhanced prostate weight)” value in test [2] is listed as “active”.
For `CCS(=O)(=O)CC(C)(O)c1[nH]c2cc(C(F)(F)F)c(C#N)cc2c1C` (racemic) [compound 246], the inhibition at 3 µM in test [3] is 70%.
For `CN(C)c1ccc(SCC(C)(O)c2cc3cc(Cl)c(C(F)(F)F)cc3[nH]2)cc1` (centres unmarked) [compound 124], in test [1] (3000 nM), the “% Activity” value was −4%. Also, the “active / inactive (inhibition of testosterone-enhanced prostate weight)” value in test [2] is “inactive”.
With `CCSCC(C)(O)c1[nH]c2cc(C(F)(F)F)c([N+](=O)[O-])cc2c1C#N` (single isomer, unassigned) [compound 247], the “active / inactive (inhibition of testosterone-enhanced prostate weight)” value in test [2] was “inactive”. Also, the “% Inhibition” value in test [3] stood at 90%.
For the compound `CCSCC(C)(O)c1[nH]c2cc(C(F)(F)F)c([N+](=O)[O-])cc2c1C#N` (centres unmarked) [compound 242], the “active / inactive (inhibition of testosterone-enhanced prostate weight)” value in test [2] is “inactive”. For the same compound, the inhibition at 3 µM in test [3] turned out to be 92%.
As to `CC(O)(CSc1ccc(N)cc1)c1cc2cc(Cl)c(C(F)(F)F)cc2n1S(C)(=O)=O` (racemic) [compound 125], the “% Activity” value in test [1] (3000 nM) was −5%.
Consider `CC(O)(CS(=O)(=O)CC(F)(F)F)c1[nH]c2cc([N+](=O)[O-])c(C(F)(F)F)cc2c1Cl` (centres unmarked) [compound 207], for which the “% Activity” value in test [1] (3000 nM, 3 µM) was 1% and −1%. Also, the “active / inactive (inhibition of testosterone-enhanced prostate weight)” value in test [2] is on record as “active”.
As for `CCSCC(C)(O)c1[nH]c2cc(C(F)(F)F)c(C#N)cc2c1C` (centres unmarked) [compound 219], in test [1] (3000 nM, 3 µM), the “% Activity” value is listed as −3%. The “active / inactive (inhibition of testosterone-enhanced prostate weight)” value in test [2] is “inactive”.
Take `CSCCC(C)(O)c1cc2cc(Cl)c(C(F)(F)F)cc2[nH]1` (racemic) [compound 51]: in test [1] (3000 nM), the “% Activity” value is reported as 2%. Moreover, the “active / inactive (inhibition of testosterone-enhanced prostate weight)” value in test [2] is “inactive”.
The corresponding values for `CCSCC(C)(O)c1cc2cc(C#N)c(C(F)(F)F)cc2[nH]1` (centres unmarked) [Compound #218, 2-(2-Ethylsulfanyl-1-hydroxy-1-methyl-ethyl)-6-trifluoromethyl-1H-indole-5-carbonitrile] are 0% and “inactive”.
For the compound `CSCC(C)(O)c1cc2cc([N+](=O)[O-])c(C(F)(F)F)cc2[nH]1` (single isomer, unassigned) [compound 144], the “% Activity” value in test [1] (3000 nM, 3 µM) was 0%.
As to `CC[S+]([O-])CC(C)(O)c1cc2cc(C(F)(F)F)c([N+](=O)[O-])cc2[nH]1` (mixture of isomers) [compound 230], the “% Activity” value in test [1] (3000 nM) came to 0%. For the same compound, the “active / inactive (inhibition of testosterone-enhanced prostate weight)” value in test [2] is “active”.
As for `CSC(C)(O)c1cc2cc([N+](=O)[O-])c(C(F)(F)F)cc2[nH]1` (racemic) [compound 267], the “% Activity” value in test [1] (3000 nM, 3 µM) is −5% and 0%. The “active / inactive (inhibition of testosterone-enhanced prostate weight)” value in test [2] is “inactive”.
`CCS(=O)(=O)CC(C)(O)c1cc2cc(C#N)c(C(F)(F)F)cc2n1C` (racemic) [compound 240]: in test [1] (3000 nM), the “% Activity” value is listed as 0%. Besides, in test [2], the “active / inactive (inhibition of testosterone-enhanced prostate weight)” value is “inactive”.
The corresponding values for `CC(O)(CSCc1ccco1)c1cc2cc([N+](=O)[O-])c(C(F)(F)F)cc2[nH]1` (racemic) [compound 198] are 7% and “inactive”.
Regarding `CC(O)(CSc1ccccc1N)c1cc2cc(Cl)c(C(F)(F)F)cc2[nH]1` (centres unmarked) [compound 123], the “% Activity” value was −4% in test [1] (3000 nM) and 1 @ 8000 nM % in test [1] (@ 8000 nM). In addition, the “active / inactive (inhibition of testosterone-enhanced prostate weight)” value in test [2] is “inactive”.
As to `CC(O)(CS(=O)(=O)CC(F)(F)F)c1cc2cc([N+](=O)[O-])c(C(F)(F)F)cc2[nH]1` (racemic) [compound 208], the “% Activity” value in test [1] (3000 nM) is recorded as 1%. Further, in test [2], the “active / inactive (inhibition of testosterone-enhanced prostate weight)” value is listed as “active”.
In the case of `CCSCC(C)(O)c1[nH]c2cc(C(F)(F)F)c([N+](=O)[O-])cc2c1C` (racemic) [compound 221], the “% Activity” value in test [1] (3000 nM) is reported as −1%. In addition, the “active / inactive (inhibition of testosterone-enhanced prostate weight)” value in test [2] is “inactive”.
On to `CC[S+]([O-])CC(O)c1cc2cc([N+](=O)[O-])c(C(F)(F)F)cc2[nH]1` (mixture of isomers) [compound 180], for which the “% Activity” value in test [1] (3000 nM) was found to be 2%. Also, in test [2], the “active / inactive (inhibition of testosterone-enhanced prostate weight)” value was “inactive”.
